# What was measured:
# PLA2 from snake venoms = settings: same methodology as this paper; read-out: IC50 (PLA2 inhibition); cited from earlier work
# [1] = target: P-I type metalloproteinase Batx-I (Bothrops atrox, UniProt P0DJE1); assay: biochemical
# Chain of P-I type metalloproteinase Batx-I (P0DJE1 whole entry, looked up): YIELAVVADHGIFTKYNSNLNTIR
Compound,IC50 (PLA2 from snake venoms) [µM],melting point [°C],activity at 2000 µM ([1]; read-out: Batx-I proteolytic activity still observed) [%],IC50 [1] [µM]
O=C1c2c(O)cc(O)cc2O[C@H](c2ccc(O)cc2)[C@H]1c1c(O)cc(O)c2c(=O)cc(-c3ccc(O)c(O)c3)oc12 [Morelloflavone],380,–,–,–
COc1cc(O)c2c(c1)O[C@H](c1ccccc1)CC2=O [Pinostrobin],1850,–,–,–
"CCOC(=O)CSC(=O)c1ccc(Cl)cc1 [Compound I, Ethyl 2-((4-chlorobenzoyl)thio)acetate]",–,55.6,70,–
"CCOC(=O)CSC(=O)c1ccc([N+](=O)[O-])cc1 [III, Ethyl 2-((4-nitrobenzoyl)thio)acetate]",–,56.2,–,1880
"CCOC(=O)CSC(=O)c1cccc([N+](=O)[O-])c1 [II, Ethyl 2-((3-nitrobenzoyl)thio)acetate]",–,44.5,–,2770

# From publication PMC6630910 (Pharmaceuticals, 2019)
